Columns and labels:
Assay in all cases: fluorescent intercalator displacement (thiazole orange)
Settings in all cases: 50 mM KCl, 10 mM potassium cacodylate (60 mM K+); pH 7.4, room temperature; thiazole orange 0.625 μM displaced; DNA 0.25 μM; DMSO stocks
[1] = system: HIF1α (HIF1) (DNA, G4) CGGGGAGGGGAGAGGGGGCGGGA
[2] = system: c-Kit (c-Kit21) (DNA, G4) CGGGCGGGCGCGAGGGAGGGG
[3] = system: ds26 (DNA, duplex) CAATCGGATCGAATTCGATCCGATTG
[4] = system: c-Myc (DNA, G4) GGGAGGGTGGGGAGGGTGGG
[5] = system: VEGF (VEGF22) (DNA, G4) CGGGGCGGGCCGGGGGCGGGGT
[6] = system: KRAS m(1:5:1) (DNA, G4) GGGAGGGAAGGAGGGAGGG
[7] = system: hTERT (DNA, G4) GGGGAGGGGCTGGGAGGGCCC
[8] = system: HTelo (DNA, G4) AGGGTTAGGGTTAGGGTTAGGG
[9] = system: KRAS m(1:9:1) (DNA, G4) GGGAGGGAAGGAGGGAGGGAGGG

DC50 [1]: 10.20 (0.54) μM
DC50 [2]: 3.58 (0.28) μM
DC50 [3]: 9.91 (0.55) μM
DC50 [4]: 7.15 (0.17) μM
DC50 [5]: 11.58 (0.41) μM
DC50 [6]: 2.28 (0.10) μM
DC50 [7]: 10.51 (0.61) μM
DC50 [8]: 1.01 (0.03) μM
DC50 [9]: 2.35 (0.09) μM
SMILES: O=C(N/N=C/c1ccc(O)cc1[O-])N(Cc1ccccc1)Cc1ccccc1.[Cu+2].c1ccncc1

Reference: article PMC5107956 (2016)
